Measured values reported in US20120058135A1, “Identification and characterization of racemases, definition of protein signatures, and a test for detecting D-amino acid and for screening molecules capable of inhibiting the activity of racemase, especially proline racemase” (Institut Pasteur, priority 2010, published 2012).
Values joined by “and” are separate entries in the source; they are usually repeats but may differ in a detail not shown here. Equal entries are not always repeated.

What was measured:
[1] = target: T1, D-AAO (Sus scrofa, UniProt P00371); test: D-AAO microplate test for detection of D-amino acids; assay type: biochemical, swine; settings: raw OD
T1 construct: purchased Sigma A-5222; host or cells: swine kidney
T1 sequence (P00371 whole entry): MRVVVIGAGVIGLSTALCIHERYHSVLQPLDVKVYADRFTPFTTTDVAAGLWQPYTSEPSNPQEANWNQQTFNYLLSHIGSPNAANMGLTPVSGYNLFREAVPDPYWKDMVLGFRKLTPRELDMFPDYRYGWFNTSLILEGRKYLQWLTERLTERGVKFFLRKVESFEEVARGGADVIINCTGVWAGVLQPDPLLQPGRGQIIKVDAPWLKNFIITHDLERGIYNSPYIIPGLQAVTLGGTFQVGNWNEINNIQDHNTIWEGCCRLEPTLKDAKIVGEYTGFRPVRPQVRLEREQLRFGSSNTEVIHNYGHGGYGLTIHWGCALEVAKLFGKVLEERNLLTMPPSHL
Excerpt: The D-AAO/HRP test described here above can also be used for this purpose with slight modifications. For that purpose, the racemase reaction step should be skipped and the microplate test should start straightforward at the II-1-2.1-2 step described above with the following remarks:
1) Standard: It should not be an equimolar mixture of D- and L-amino acid, but rather a serial dilution of D-Amino acids. The choice of amino acid is made according to the interest of the D-amino acid under investigation. The final volume in wells should be of 87 μl.
2) Negative control: It is made with the L-enantiomer of the D-amino acid under investigation. The final volume should be 87 μl.
3) Blank: It is made with 87 μl buffer*. (See paragraph II.1.1 Materials.)
4) Samples: The samples to be tested should be adjusted to pH 8.3 with buffer* and their final volumes should be of 87 μl per well.
5) Then, the procedure follows steps 3) to 6), as above.
Different L- and D-amino acids were tested, namely Tyrosine (Tyr), Valine (Val), Threonine (Thr), Glutamic acid (Glu), Lysine (Lys) and Tryptophan (Try).

[2] = target: D-AAO/HRP (Sus scrofa, UniProt P00371); test: Interference with the D-AAO/HRP reaction; assay type: biochemical, swine
D-AAO/HRP, sequence (P00371 whole entry): as above

[3] = target: native protein obtained from a soluble epimastigote fraction (proline racemase) (Trypanosoma cruzi, UniProt Q868H8); test: Kinetic assays using the native protein from a soluble epimastigote fraction; assay type: biochemical
native protein obtained from a soluble epimastigote fraction (proline racemase), sequence (Q868H8 whole entry): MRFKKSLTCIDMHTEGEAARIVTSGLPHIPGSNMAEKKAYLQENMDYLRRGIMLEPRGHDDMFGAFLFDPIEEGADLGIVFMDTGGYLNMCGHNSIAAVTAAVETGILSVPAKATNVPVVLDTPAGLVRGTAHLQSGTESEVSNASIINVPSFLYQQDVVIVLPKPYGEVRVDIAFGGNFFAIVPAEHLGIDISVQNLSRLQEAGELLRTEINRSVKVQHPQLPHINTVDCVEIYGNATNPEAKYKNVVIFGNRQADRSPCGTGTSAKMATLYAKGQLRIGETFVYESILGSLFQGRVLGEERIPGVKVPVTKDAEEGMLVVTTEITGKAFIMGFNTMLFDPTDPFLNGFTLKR
Excerpt: The progress of racemization reaction was monitored polarimetrically, as previously described (13). […] Values obtained were confirmed by using the Kaleïdagraph® program and Michaelis-Menten equation. […] C.

[4] = system: non-infected monkey cell cultures
[5] = target: T2, CsPR (Acetoanaerobium sticklandii, UniProt E3PTZ4); settings: cited from earlier work
T2 sequence (E3PTZ4 1-335): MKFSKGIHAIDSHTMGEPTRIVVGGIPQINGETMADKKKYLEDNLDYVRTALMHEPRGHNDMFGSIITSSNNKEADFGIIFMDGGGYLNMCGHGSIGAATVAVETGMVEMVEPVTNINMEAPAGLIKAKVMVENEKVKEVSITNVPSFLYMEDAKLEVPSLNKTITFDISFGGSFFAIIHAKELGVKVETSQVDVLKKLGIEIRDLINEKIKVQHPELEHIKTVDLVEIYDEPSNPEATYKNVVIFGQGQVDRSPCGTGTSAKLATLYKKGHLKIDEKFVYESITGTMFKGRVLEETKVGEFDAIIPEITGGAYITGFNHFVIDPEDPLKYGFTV

[6] = system: B cells; settings: TcPRAC inhibited by the compound; cited from earlier work

With `NCCCC[C@H](N)C(=O)O` [L-Lys, Lysine] the “Optical density at 490 nm after D-AAO reaction” value (shortened to “Optical density at 490 nm”) ([1]; L-enantiomers, 12.5 mM) was 0.125 and 0.131.
With `N[C@@H](Cc1c[nH]c2ccccc12)C(=O)O` [L-Try, Tryptophan] the “Optical density at 490 nm” value ([1]; L-enantiomers, 12.5 mM) was 0.131 and 0.138.
With `N[C@@H](Cc1c[nH]c2ccccc12)C(=O)O` [D-Try, Tryptophan] the “Optical density at 490 nm” value ([1]; D-enantiomers, 6.25 mM) was 0.615 and 0.662.
With `NCCCC[C@H](N)C(=O)O` [D-Lys, Lysine] the “Optical density at 490 nm” value ([1]; D-enantiomers, 6.25 mM) was 0.243 and 0.157.
For `N[C@@H](Cc1ccc(O)cc1)C(=O)O` [D-Tyr, Tyrosine], the “Optical density at 490 nm” value ([1]; D-enantiomers, 6.25 mM) was 1.317 and 0.991.
For `CC(C)[C@H](N)C(=O)O` [L-Val, Valine], the “Optical density at 490 nm” value ([1]; L-enantiomers, 12.5 mM) was 0.135 and 0.129.
In the case of `O=C(O)[C@H]1CCCN1` [D-pro, D-Proline], the “Optical density at 490 nm” value ([1]; 0.05 mM) is reported as 0.173, the “Optical density at 490 nm” value ([1]; 0.09 mM) is reported as 0.213 and 0.215 and the “Optical density at 490 nm” value ([1]; 0.19 mM) is reported as 0.308 and 0.32. The “Optical density at 490 nm” value ([1]; 0.39 mM) was 0.496 and 0.504, the “Optical density at 490 nm” value ([1]; 0.77 mM) was 0.809 and 0.824 and the “Optical density at 490 nm” value ([1]; 1.55 mM) was 1.234 and 1.221. For the same molecule, the “Optical density at 490 nm” value ([1]; 3.09 mM) was 1.716 and 1.879, the “Optical density at 490 nm” value ([1]; 6.19 mM) was 1.983 and 1.949 and the “Optical density at 490 nm” value ([1]; 12.37 mM) was 1.814 and 1.976. The “Optical density at 490 nm” value ([1]; 24.75 mM) was 1.757 and 1.885 and the “Optical density at 490 nm” value ([1]; 49.5 mM) was 1.961 and 2.004.
With `O=C(O)[C@@H]1CCCN1` [L-Proline] the “effect on D-AAO/HRP reaction” value [2] was “Inhibits”.
With `N[C@@H](CCC(=O)O)C(=O)O` [L-Glu, Glutamic acid] the “Optical density at 490 nm” value ([1]; L-enantiomers, 12.5 mM) was 0.131 and 0.141.
In the case of `CC(C)[C@H](N)C(=O)O` [D-Val, Valine], the “Optical density at 490 nm” value ([1]; D-enantiomers, 6.25 mM) is reported as 1.683 and 1.612.
With `C[C@@H](O)[C@H](N)C(=O)O` [L-Thr, Threonine] the “Optical density at 490 nm” value ([1]; L-enantiomers, 12.5 mM) was 0.124 and 0.128.
With `N[C@@H](Cc1ccc(O)cc1)C(=O)O` [L-Tyr, Tyrosine] the “Optical density at 490 nm” value ([1]; L-enantiomers, 12.5 mM) was 0.193 and 0.141.
For `C[C@@H](O)[C@H](N)C(=O)O` [D-Thr, Threonine], the “Optical density at 490 nm” value ([1]; D-enantiomers, 6.25 mM) was 0.215 and 0.157.
For `N[C@@H](CCC(=O)O)C(=O)O` [D-Glu, Glutamic acid], the “Optical density at 490 nm” value ([1]; D-enantiomers, 6.25 mM) was 0.147 and 0.116.
For `O=C(O)c1ccc[nH]1` [PAC, pyrrole-2-carboxylic acid], the Ki [3] was 1.15 µM, the “effect on D-AAO/HRP reaction” value [2] was “does not influence DAAO/HRP reaction” and the “interference with cellular growth” value [4] was “do not interfere with cellular growth”. For the same molecule, the Ki [5] was 18 µM and the “TcPRAC B cell mitogenic ability” value [6] was “total loss of TcPRAC B cell mitogenic ability”.
